From patent US20090311234A1, “USE OF BETA-LACTAMASE” (priority 2006, published 2009)

Assay: Elimination of jejunal piperacillin during parenteral piperacillin/tazobactam therapy, canine model
Type: in vivo, beagle dogs
Conditions: i.v. 100 mg piperacillin and 12.5 mg tazobactam per kg; experiment 1; compared with ampicillin or amoxicillin
Procedure: Beagle dogs were treated with a combination of piperacillin and tazobactam without and with simultaneous beta-lactamase therapy. The experiments were performed essentially as those described in Examples 1 and 2, except that a single dose of the piperacillin/tazobactam combination contained 100 mg of piperacillin and 12.5 mg of tazobactam per kg of body weight, and the HPLC analysis method was elaborated to be suitable for analysis of piperacillin (the limit of quantification was 10 micrograms per gram of jejunal chyme).
Piperacillin values in experiment 1 represent jejunal piperacillin concentrations achieved after two separate administrations of piperacillin/tazobactam at a dosing interval of 6 hours without beta-lactamase treatment. Beagle dogs were treated with a piperacillin/tazobactam combination with concurrent beta-lactamase therapy in experiment 2.
The experiment was repeated except that the single dose of beta-lactamase pellets contained about 0.3 mg of active beta-lactamase per kg of body weight, and the single dose of the piperacillin/tazobactam combination contained 65.6 mg of piperacillin and 9.4 mg of tazobactam per kg of body weight.

Compound: CCN1CCN(C(=O)N[C@@H](C(=O)N[C@@H]2C(=O)N3[C@@H]2SC(C)(C)[C@@H]3C(=O)O)c2ccccc2)C(=O)C1=O [piperacillin]
- biliary elimination of piperacillin without beta-lactamase: considerably higher than that of ampicillin or amoxicillin
